Data as given in US20260265195A1, “SARM1 MODULATORS, PREPARATIONS, AND USES THEREOF” (SIRONAX LTD, priority 2022, published 2026).

Target: T1, SARM1 (50-724) (Homo sapiens, UniProt Q6SZW1)
T1 construct: Purified SARM1 (50-724) with a final concentration of 2 nM
T1 sequence (Q6SZW1 50-724): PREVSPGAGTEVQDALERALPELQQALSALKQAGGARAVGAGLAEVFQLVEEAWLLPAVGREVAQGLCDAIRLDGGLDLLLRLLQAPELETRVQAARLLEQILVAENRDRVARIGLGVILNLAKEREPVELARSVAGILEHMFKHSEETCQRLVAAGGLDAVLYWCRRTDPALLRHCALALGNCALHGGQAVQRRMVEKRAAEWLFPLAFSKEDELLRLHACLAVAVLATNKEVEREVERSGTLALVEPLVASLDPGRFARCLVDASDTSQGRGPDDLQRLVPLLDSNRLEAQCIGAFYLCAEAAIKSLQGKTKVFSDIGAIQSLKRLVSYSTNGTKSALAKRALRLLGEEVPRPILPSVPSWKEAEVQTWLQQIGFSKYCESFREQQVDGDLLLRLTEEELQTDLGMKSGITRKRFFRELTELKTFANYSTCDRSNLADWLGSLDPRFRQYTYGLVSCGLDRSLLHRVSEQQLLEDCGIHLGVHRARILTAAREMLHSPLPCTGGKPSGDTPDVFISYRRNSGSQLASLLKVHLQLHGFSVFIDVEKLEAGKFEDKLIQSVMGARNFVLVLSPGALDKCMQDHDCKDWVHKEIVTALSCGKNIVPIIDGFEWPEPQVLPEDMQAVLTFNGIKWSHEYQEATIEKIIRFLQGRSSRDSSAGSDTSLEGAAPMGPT
Test: SARM1 (50-724) enzymatic assay (NMN-activated NAD+ hydrolysis, LC-MS/MS readout)
Type: biochemical
Conditions: purified SARM1 (50-724) 2 nM, 200 μM NMN activator, 100 μM NAD+ substrate, 1 h at room temperature, read-out: IC50 (SARM1 inhibitory activity)
Procedure, shortened: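 Purified human SARM1 (50-724), 2 nM final in DPBS, pre-incubated 15 min at RT with compound (1% DMSO), then started with 200 μM NMN activator and 100 μM NAD+. After 1 h at RT, quenched with 70% acetonitrile; analysed by LC-MS/MS.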

Compound	IC50 [µM]
Cc1cccc(N(CCO)C(=O)c2nc3cc(C(F)(F)F)ccc3[nH]2)c1Cl [Compound 151, N-(2-chloro-3-methylphenyl)-N-(2-hydroxyethyl)-5-(trifluoromethyl)-1H-benzo[d]imidazole-2-carboxamide]	≤ 0.1
Cc1ccc(Cl)c(N(C)C(=O)c2nc3cc(C(F)(F)F)ccc3[nH]2)c1Cl [Compound 152, N-(2,6-dichloro-3-methylphenyl)-N-methyl-5-(trifluoromethyl)-1H-benzo[d]imidazole-2-carboxamide]	≤ 0.1
Cc1csc(-c2ccc3[nH]c(C(=O)N(CCO)c4cccc(Cl)c4Cl)nc3c2)n1 [Compound 153]	0.101 to 0.5
Cc1c[nH]c(-c2ccc3[nH]c(C(=O)N(CCO)c4cccc(Cl)c4Cl)nc3c2)n1 [Compound 154]	≥ 1
Cc1ccnc(N(CC(F)(F)CO)C(=O)c2nc3cc(C(F)(F)F)ccc3[nH]2)c1Cl [Compound 156, N-(3-chloro-4-methylpyridin-2-yl)-N-(2,2-difluoro-3-hydroxypropyl)-5-(trifluoromethyl)-1H-benzo[d]imidazole-2-carboxamide]	0.101 to 0.5
O=C(c1nc2cc(C(F)(F)F)ccc2[nH]1)N(CCO)c1cccc(F)c1Cl [Compound 157, N-(2-chloro-3-fluorophenyl)-N-(2-hydroxyethyl)-5-(trifluoromethyl)-1H-benzo[d]imidazole-2-carboxamide]	≤ 0.1
Cc1c(F)cccc1N(CCO)C(=O)c1nc2cc(C(F)(F)F)ccc2[nH]1 [Compound 158, N-(3-fluoro-2-methylphenyl)-N-(2-hydroxyethyl)-5-(trifluoromethyl)-1H-benzo[d]imidazole-2-carboxamide]	≤ 0.1
O=C(c1nc2cc(C(F)(F)F)ccc2[nH]1)N(CCO)c1c(Cl)cccc1Cl [Compound 159, N-(2,6-dichlorophenyl)-N-(2-hydroxyethyl)-5-(trifluoromethyl)-1H-benzo[d]imidazole-2-carboxamide]	0.101 to 0.5
Cc1ccc2[nH]c(C(=O)N(CCO)c3cccc(Cl)c3Cl)nc2c1Br [Compound 160]	≤ 0.1
O=C(c1nc2cc(-c3cscn3)ccc2[nH]1)N(CCO)c1cccc(Cl)c1Cl [Compound 161]	≤ 0.1
O=C(c1nc2cc(C(F)(F)F)c(Cl)cc2[nH]1)N(CCO)c1cccc(Cl)c1Cl [Compound 163]	0.101 to 0.5
Cc1ccc2[nH]c(C(=O)N(CCO)c3cccc(Cl)c3Cl)nc2c1-c1cc[nH]c(=O)c1 [Compound 164]	0.101 to 0.5
O=C1CCCN1CCN(C(=O)c1nc2ccc(C(F)(F)F)cc2[nH]1)c1cccc(Cl)c1Cl [Compound 165, N-(2,3-dichlorophenyl)-N-(2-(2-oxopyrrolidin-1-yl)ethyl)-6-(trifluoromethyl)-1H-benzo[d]imidazole-2-carboxamide]	0.501 to 1
[2H]C([2H])([2H])N(C(=O)c1nc2cc(C(F)(F)F)ccc2[nH]1)c1cncc(Cl)c1C [Compound 166, N-(5-chloro-4-methylpyridin-3-yl)-N-(methyl-d3)-5-(trifluoromethyl)-1H-benzo[d]imidazole-2-carboxamido]	≤ 0.1
COC1CN(CCN(C(=O)c2nc3cc(C(F)(F)F)ccc3[nH]2)c2cccc(Cl)c2Cl)C1 [Compound 167, N-(2,3-dichlorophenyl)-N-(2-(3-methoxyazetidin-1-yl)ethyl)-5-(trifluoromethyl)-1H-benzo[d]imidazole-2-carboxamide]	≤ 0.1
CC(C)(O)CN(C(=O)c1nc2cc(C(F)(F)F)ccc2[nH]1)c1cccc(Cl)c1Cl [Compound 168, N-(2,3-dichlorophenyl)-N-(2-hydroxy-2-methylpropyl)-5-(trifluoromethyl)-1H-benzo[d]imidazole-2-carboxamide]	≤ 0.1
CC(O)CN(C(=O)c1nc2cc(C(F)(F)F)ccc2[nH]1)c1cccc(Cl)c1Cl (stereo not drawn) [Compound 170]	≤ 0.1
O=C(c1nc2cc(CO)ccc2[nH]1)N(CCO)c1cccc(Cl)c1Cl [Compound 171]	0.101 to 0.5

Compound	IC50 [µM]
Cc1cccc(N(CCO)C(=O)c2nc3cc(C(F)(F)F)ccc3[nH]2)c1F [Compound 172, N-(2-fluoro-3-methylphenyl)-N-(2-hydroxyethyl)-5-(trifluoromethyl)-1H-benzo[d]imidazole-2-carboxamide]	0.501 to 1
O=C(c1nc2cc(C(F)(F)F)ccc2[nH]1)N(CC1(CO)COC1)c1cccc(Cl)c1Cl [Compound 174, N-(2,3-dichlorophenyl)-N-((3-(hydroxymethyl)oxetan-3-yl)methyl)-5-(trifluoromethyl)-1H-benzo[d]imidazole-2-carboxamido]	≤ 0.1
Cc1c(Cl)cncc1N(CCO)C(=O)c1nc2c(Cl)c(Cl)ccc2[nH]1 [Compound 175]	0.501 to 1
CN(C(=O)c1nc2c(C3CC(O)C3)cccc2[nH]1)C1CCCC1 (stereo not drawn) [Compound 176, N-cyclopentyl-4-((1s,3s)-3-hydroxycyclobutyl)-N-methyl-1H-benzo[d]imidazole-2-carboxamide]	≥ 1
O=C(c1nc2cc(C(F)(F)F)ccc2[nH]1)N(CC1CC(O)C1)c1cccc(Cl)c1Cl (stereo not drawn) [Compound 177, N-(2,3-dichlorophenyl)-N-((3-hydroxycyclobutyl)methyl)-5-(trifluoromethyl)-1H-benzo[d]imidazole-2-carboxamide]	≤ 0.1
O=C(c1nc2cc(C(F)(F)F)ccc2[nH]1)N(CCOC1COC1)c1cccc(Cl)c1Cl [Compound 178, N-(2,3-dichlorophenyl)-N-(2-(oxetan-3-yloxy)ethyl)-5-(trifluoromethyl)-1H-benzo[d]imidazole-2-carboxamide]	≤ 0.1
O=C(c1nc2cc(C(F)(F)F)ccc2[nH]1)N(CCN1CC(O)C1)c1cccc(Cl)c1Cl [Compound 179, N-(2,3-dichlorophenyl)-N-(2-(3-hydroxyazetidin-1-yl)ethyl)-5-(trifluoromethyl)-1H-benzo[d]imidazole-2-carboxamide]	≤ 0.1
O=C(c1nc2cc(C(F)(F)F)ccc2[nH]1)N(CC1CS(=O)(=O)C1)c1cccc(Cl)c1Cl [Compound 180, N-(2,3-dichlorophenyl)-N-((1,1-dioxidothietan-3-yl)methyl)-5-(trifluoromethyl)-1H-benzo[d]imidazole-2-carboxamide]	≤ 0.1
CC1(CN(C(=O)c2nc3cc(C(F)(F)F)ccc3[nH]2)c2cccc(Cl)c2Cl)COC1 [Compound 181, N-(2,3-dichlorophenyl)-N-((3-methyloxetan-3-yl)methyl)-5-(trifluoromethyl)-1H-benzo[d]imidazole-2-carboxamide]	≤ 0.1
CNC(=O)CN(C(=O)c1nc2cc(C(F)(F)F)ccc2[nH]1)c1cccc(Cl)c1Cl [Compound 182, N-(2,3-dichlorophenyl)-N-(2-(methylamino)-2-oxoethyl)-5-(trifluoromethyl)-1H-benzo[d]imidazole-2-carboxamide]	≤ 0.1
CC(C)(O)c1ccc2[nH]c(C(=O)N(CC3(F)COC3)c3cccc(Cl)c3Cl)nc2c1 [Compound 183]	≤ 0.1
Cc1c(Cl)cncc1N(CC1(F)COC1)C(=O)c1nc2cc(C(F)(F)F)ccc2[nH]1 [Compound 184, N-(5-chloro-4-methylpyridin-3-yl)-N-((3-fluorooxetan-3-yl)methyl)-5-(trifluoromethyl)-1H-benzo[d]imidazole-2-carboxamide]	0.101 to 0.5
O=C(c1nc2cc(C(F)(F)F)ccc2[nH]1)N(CC(F)(F)CO)c1cccc(F)c1Cl [Compound 185, N-(2-chloro-3-fluorophenyl)-N-(2,2-difluoro-3-hydroxypropyl)-5-(trifluoromethyl)-1H-benzo[d]imidazole-2-carboxamide]	≤ 0.1
O=C(c1nc2cc(C(F)(F)F)ccc2[nH]1)N(CC1(F)COC1)c1cccc(F)c1Cl [Compound 186, N-(2-chloro-3-fluorophenyl)-N-((3-fluorooxetan-3-yl)methyl)-5-(trifluoromethyl)-1H-benzo[d]imidazole-2-carboxamide]	≤ 0.1
C=C(c1cn[nH]c1)c1ccc2[nH]c(C(=O)N(CCO)c3cccc(Cl)c3Cl)nc2c1 [Compound 187]	≤ 0.1
Cc1nsc(N(CC2(F)COC2)C(=O)c2nc3cc(C(F)(F)F)ccc3[nH]2)c1Cl [Compound 188, N-(4-chloro-3-methylisothiazol-5-yl)-N-((3-fluorooxetan-3-yl)methyl)-5-(trifluoromethyl)-1H-benzo[d]imidazole-2-carboxamide]	0.101 to 0.5
O=C(c1nc2cc(C3CC3)ccc2[nH]1)N(CCO)c1cccc(Cl)c1Cl [Compound 190]	≤ 0.1
O=C(c1nc2cc(C(F)(F)F)ccc2[nH]1)N(c1cccc(Cl)c1Cl)C1CC(O)C1 (stereo not drawn) [Compound 193, N-(2,3-dichlorophenyl)-N-(3-hydroxycyclobutyl)-5-(trifluoromethyl)-1H-benzo[d]imidazole-2-carboxamide]	≤ 0.1
